Test results from patent US20180000085A1, “USE OF PICOLINAMIDE COMPOUNDS WITH FUNGICIDAL ACTIVITY” (DOW AGROSCIENCES LLC, priority 2014, published 2018).

Key:
Zymoseptoria tritici = test: Leaf blotch of wheat (SEPTTR) disease control on wheat seedlings; type: in vivo; parameters: key to SEPTTR 1DP, HV activity at 100 ppm (% control rating) / SEPTTR 3DC, HV activity at 100 ppm (% control rating) / SEPTTR disease control, 1DP / SEPTTR disease control, 3DC / SEPTTR 1DP disease control rating, HV activity / SEPTTR 3DC disease control rating, HV activity / SEPTTR 3DC, LV activity at 125.1 g/H (% Control rating) / SEPTTR 1DP, LV activity at 125.1 g/H (% Control rating) / SEPTTR 1DP disease control rating, LV activity at 125.1 g/H / SEPTTR 3DC disease control rating, LV activity at 125.1 g/H / SEPTTR 3DC disease control rating, HV activity at 100 ppm / SEPTTR 1DP disease control rating, HV activity at 100 ppm / HV activity at 100 ppm SEPTTR 3DC (disease control rating) / HV activity at 100 ppm SEPTTR 1DP (disease control rating) / LV activity at 125.1 g/H SEPTTR 1DP (disease control rating) / LV activity at 125.1 g/H SEPTTR 3DC (disease control rating): A: > 80; B: ≤ 80; C: Not Tested; D: No Activity Observed in the Reported Assay; conditions: for SEPTTR 1DP disease control rating, HV activity / SEPTTR 3DC disease control rating, HV activity: HV application at 100 ppm; for SEPTTR 1DP disease control rating, HV activity at 100 ppm / SEPTTR 3DC disease control rating, HV activity at 100 ppm: high volume application
Puccinia triticina = test: Wheat brown rust (PUCCRT) disease control on wheat seedlings; type: in vivo; parameters: key to PUCCRT 3DC, HV activity at 100 ppm (% control rating) / PUCCRT disease control, 3DC / PUCCRT 1DP disease control rating, HV activity / PUCCRT 3DC disease control rating, HV activity / PUCCRT 3DC, LV activity at 125.1 g/H (% Control rating) / PUCCRT 1DP, LV activity at 125.1 g/H (% Control rating) / PUCCRT 3DC disease control rating, LV activity at 125.1 g/H / PUCCRT 1DP disease control rating, LV activity at 125.1 g/H / PUCCRT 3DC disease control rating, HV activity at 100 ppm / PUCCRT 1DP disease control rating, HV activity at 100 ppm / HV activity at 100 ppm PUCCRT 3DC (disease control rating) / LV activity at 125.1 g/H PUCCRT 1DP (disease control rating) / LV activity at 125.1 g/H PUCCRT 3DC (disease control rating): A: > 80; B: ≤ 80; C: Not Tested; D: No Activity Observed in the Reported Assay; conditions: for PUCCRT 1DP disease control rating, HV activity / PUCCRT 3DC disease control rating, HV activity: HV application at 100 ppm; for PUCCRT 1DP disease control rating, HV activity at 100 ppm / PUCCRT 3DC disease control rating, HV activity at 100 ppm: high volume application
[1] = low volume application, 125.1 g/H, 1 Day Protectant
[2] = low volume application, 125.1 g/H, 3 Day Curative
[3] = 1 Day Protectant, wheat leaf blotch
[4] = 3 Day Curative, wheat leaf blotch
[5] = 1 Day Protectant, wheat brown rust
[6] = 3 Day Curative, wheat brown rust
[7] = low volume application, 125.1 g/H, 1 day protectant
[8] = low volume application, 125.1 g/H, 3 day curative

SMILES: CC[C@H](CC1CCCC1)[C@@H](OCC1CC1)[C@H](C)OC(=O)[C@H](C)NC(=O)c1nccc(OC)c1OC(C)=O [Cmpd 508]
- SEPTTR 1DP, LV activity at 125.1 g/H (% Control rating) (Zymoseptoria tritici; [1]): B (≤ 80)
- SEPTTR 3DC, LV activity at 125.1 g/H (% Control rating) (Zymoseptoria tritici; [2]): B (≤ 80)
- PUCCRT 1DP, LV activity at 125.1 g/H (% Control rating) (Puccinia triticina; [1]): B (≤ 80)
- PUCCRT 3DC, LV activity at 125.1 g/H (% Control rating) (Puccinia triticina; [2]): B (≤ 80)

SMILES: COc1ccnc(C(=O)N[C@@H](Cc2ccccc2)C(=O)O[C@@H](C)[C@H](Oc2cccc(F)c2)c2ccccc2)c1OCOC(C)=O [Cmpd 576]
- SEPTTR 1DP, LV activity at 125.1 g/H (% Control rating) (Zymoseptoria tritici; [1]): B (≤ 80)
- SEPTTR 3DC, LV activity at 125.1 g/H (% Control rating) (Zymoseptoria tritici; [2]): D
- PUCCRT 1DP, LV activity at 125.1 g/H (% Control rating) (Puccinia triticina; [1]): A (> 80)
- PUCCRT 3DC, LV activity at 125.1 g/H (% Control rating) (Puccinia triticina; [2]): B (≤ 80)

SMILES: COc1ccnc(C(=O)N[C@@H](C)C(=O)O[C@@H](C)COCC2CC2)c1O [Cmpd 338]
- SEPTTR 1DP disease control rating, HV activity (Zymoseptoria tritici; [3]): B (≤ 80)
- SEPTTR 3DC disease control rating, HV activity (Zymoseptoria tritici; [4]): D
- PUCCRT 1DP disease control rating, HV activity (Puccinia triticina; [5]): B (≤ 80)
- PUCCRT 3DC disease control rating, HV activity (Puccinia triticina; [6]): D

SMILES: COc1ccnc(C(=O)N[C@@H](C)C(=O)O[C@@H](C)[C@H](Oc2ccc(C)cc2)C2CCCC2)c1O [Cmpd 846, (S)-(1R,2S)-1-cyclopentyl-1-(p-tolyloxy)propan-2-yl-2-(3-hydroxy-4-methoxypicolinamido)propanoate]
- SEPTTR 1DP disease control rating, HV activity at 100 ppm (Zymoseptoria tritici; 100 ppm, 1 day protectant): B (≤ 80)
- SEPTTR 3DC disease control rating, HV activity at 100 ppm (Zymoseptoria tritici; 100 ppm, 3 day curative): B (≤ 80)
- PUCCRT 1DP disease control rating, HV activity at 100 ppm (Puccinia triticina; 100 ppm, 1 day protectant): A (> 80)
- PUCCRT 3DC disease control rating, HV activity at 100 ppm (Puccinia triticina; 100 ppm, 3 day curative): A (> 80)

SMILES: COc1ccnc(C(=O)NC(C)C(=O)OC(C)C(Oc2cccc(Cl)c2)C(C)C)c1O (stereo not shown) [Cmpd 432]
- SEPTTR 1DP disease control rating, HV activity (Zymoseptoria tritici; [3]): A (> 80)
- SEPTTR 3DC disease control rating, HV activity (Zymoseptoria tritici; [4]): D
- PUCCRT 1DP disease control rating, HV activity (Puccinia triticina; [5]): A (> 80)
- PUCCRT 3DC disease control rating, HV activity (Puccinia triticina; [6]): B (≤ 80)

SMILES: CCC(CC)C(Oc1cccc(F)c1)C(C)OC(=O)C(CC(C)C)NC(=O)c1nccc(OC)c1OCOC(C)=O (stereo not shown) [Cmpd 680]
- SEPTTR 1DP disease control rating, LV activity at 125.1 g/H (Zymoseptoria tritici; [7]): B (≤ 80)
- SEPTTR 3DC disease control rating, LV activity at 125.1 g/H (Zymoseptoria tritici; [8]): B (≤ 80)
- PUCCRT 1DP disease control rating, LV activity at 125.1 g/H (Puccinia triticina; [7]): D
- PUCCRT 3DC disease control rating, LV activity at 125.1 g/H (Puccinia triticina; [8]): B (≤ 80)

SMILES: COc1ccnc(C(=O)NC(C)C(=O)OC(C)COC(=O)C(C)C)c1OCOC(=O)C(C)C (stereo not shown) [Cmpd 531]
- SEPTTR 1DP, LV activity at 125.1 g/H (% Control rating) (Zymoseptoria tritici; [1]): D
- SEPTTR 3DC, LV activity at 125.1 g/H (% Control rating) (Zymoseptoria tritici; [2]): B (≤ 80)
- PUCCRT 1DP, LV activity at 125.1 g/H (% Control rating) (Puccinia triticina; [1]): D
- PUCCRT 3DC, LV activity at 125.1 g/H (% Control rating) (Puccinia triticina; [2]): D

SMILES: COc1cccc(O[C@H](C2CC2)[C@H](C)OC(=O)[C@H](C)NC(=O)c2nccc(OC)c2OC(C)=O)c1 [Cmpd 1061]
- LV activity at 125.1 g/H SEPTTR 1DP (disease control rating) (Zymoseptoria tritici; low volume application, 125.1 g/H, 1 Day Protectant, wheat leaf blotch): D
- LV activity at 125.1 g/H SEPTTR 3DC (disease control rating) (Zymoseptoria tritici; low volume application, 125.1 g/H, 3 Day Curative, wheat leaf blotch): B (≤ 80)
- LV activity at 125.1 g/H PUCCRT 1DP (disease control rating) (Puccinia triticina; low volume application, 125.1 g/H, 1 Day Protectant, wheat brown rust): B (≤ 80)
- LV activity at 125.1 g/H PUCCRT 3DC (disease control rating) (Puccinia triticina; low volume application, 125.1 g/H, 3 Day Curative, wheat brown rust): A (> 80)

SMILES: COc1ccnc(C(=O)N[C@@H](C)C(=O)O[C@@H](C)[C@H](OCC2CC2)C2CC2)c1O [Cmpd 1002]
- SEPTTR 1DP disease control rating, HV activity at 100 ppm (Zymoseptoria tritici; 100 ppm, 1 day protectant): B (≤ 80)
- SEPTTR 3DC disease control rating, HV activity at 100 ppm (Zymoseptoria tritici; 100 ppm, 3 day curative): B (≤ 80)
- PUCCRT 1DP disease control rating, HV activity at 100 ppm (Puccinia triticina; 100 ppm, 1 day protectant): A (> 80)
- PUCCRT 3DC disease control rating, HV activity at 100 ppm (Puccinia triticina; 100 ppm, 3 day curative): A (> 80)

SMILES: C=CC(OC(=O)C(C)NC(=O)c1nccc(OC)c1O)C(Oc1ccccc1)C(C)C (stereo not shown) [Cmpd 1033]
- HV activity at 100 ppm SEPTTR 1DP (disease control rating) (Zymoseptoria tritici; HV application, 100 ppm, 1 Day Protectant, wheat leaf blotch): A (> 80)
- HV activity at 100 ppm SEPTTR 3DC (disease control rating) (Zymoseptoria tritici; HV application, 100 ppm, 3 Day Curative, wheat leaf blotch): B (≤ 80)
- HV activity at 100 ppm PUCCRT 1DP (disease control rating) (Puccinia triticina; HV application, 100 ppm, 1 Day Protectant, wheat brown rust): A (> 80)
- HV activity at 100 ppm PUCCRT 3DC (disease control rating) (Puccinia triticina; HV application, 100 ppm, 3 Day Curative, wheat brown rust): A (> 80)
